From publication PMC8344233, “Anticancer activity and toxicity of new quaternary ammonium geldanamycin derivative salts and their mixtures with potentiators” (Journal of Enzyme Inhibition and Medicinal Chemistry, 2021)

What was measured:
HeLa = experiment: MTT cytotoxicity assay, HeLa (1st panel); format: cell-based, human; conditions: for IC50: Homo sapiens, HeLa, ± SD, MTT, 72 h; for selectivity index SI (HeLa): IC50 normal cell line CCD39Lu/IC50 HeLa
Protocol: (§1) Cell survival was measured as the percentage absorbance compared to the control (nontreated cells). […]
(§2) SI indexes were calculated from equation SI = IC50 normal cell line HDF/IC50 respective cancerous cell line (Table 2). A beneficial SI > 1.0 indicates a compound with efficacy against tumor cell greater than the toxicity against normal cells.
(§3) All experiments were carried out with human breast adenocarcinoma (MDA-MB-231 and MCF-7), hepatocellular carcinoma (HepG2), human cervical adenocarcinoma (HeLa) cancer cell lines, and human normal lung fibroblast (CCD39Lu) cell line. The cell line was purchased from the European Collection of Cells Cultures (ECACC, Salisbury, UK), and cultured in DMEM with phenol red supplemented with 10% (v/v) FBS, 1% (v/v) penicillin/streptomycin, and 1% (v/v) L-glutamine at 37 °C, in a humidified atmosphere containing 5% CO2.
(§4) The tested compounds were dissolved in DMSO to the final concentration 10 mM and stored […]
(§5) The cytotoxic effect of the tested compounds was determined by MTT assay. MDA-MB-231, MCF-7, HepG2, HeLa, and CCD39Lu cells were seeded in 96 wells plates at density 2x10^4 cells/well and incubated overnight under cell culture condition. Next, cells were treated with tested compounds at concentrations of 10 µM; 5 µM; 2.5 µM; 1.2 µM; 0.6 µM; 0.3 µM; 0.15 […]
(§6) µM. Moreover, GDM (for MCF-7) and 8 (for MCF-7 and MDA-MB-231) due to high cytotoxicity, were additionally tested at a lower concentration range of 2.5 µM; 1.2 µM; 0.6 µM; 0.3 µM; 0.15µM; 0.07 µM; 0.03 µM. DMSO was used as a control, and the concentration […]
(§7) Tested compounds were added to cells in the medium without phenol red. Cells were incubated 72 h at 37 °C in a humidified atmosphere containing 5% CO2.
(§8) Then, the medium was aspirated and MTT solution at a concentration of 0.59 mg/mL in cell culture medium was added to each well. Plates were incubated for 1.5 hours at 37 °C, and then plates were centrifuged for 3 minutes. The formazan crystals were dissolved in 200 µl DMSO and plates were agitated on a plate shaker at 300 –500 rpm for 10 minutes. Absorbance at 570 nm was measured using a plate reader (Biotek Instruments, Elx -800). Data were normalized to the mean absorption of control cells. All experiments were performed at least three times. […]

CCD39Lu = experiment: MTT cytotoxicity assay, normal lung fibroblasts CCD39Lu; format: cell-based; conditions: Fibroblast, ± SD, healthy human lung fibroblasts, 72 h, read-out: IC50 CCD39Lu (toxicity in normal cells)
Protocol: as §1, §2, §3, §4, §5, §6, §7, §8

MCF-7 = experiment: MTT cytotoxicity assay, MCF-7 (1st panel); format: cell-based, human; conditions: for IC50: Homo sapiens, MCF7, 72 h, ± SD, MTT, 72 h; for selectivity index SI (MCF-7): IC50 normal cell line CCD39Lu/IC50 MCF-7
Protocol: as §1, §2, §3, §4, §5, §6, §7, §8

MDA-MB-231 = experiment: MTT cytotoxicity assay, MDA-MB-231 (1st panel); format: cell-based, human; conditions: for IC50: Homo sapiens, MDA-MB-231, ± SD, MTT, 72 h; for selectivity index SI (MDA-MB-231): IC50 normal cell line CCD39Lu/IC50 MDA-MB-231
Protocol: as §1, §2, §3, §4, §5, §6, §7, §8

HepG2 = experiment: MTT cytotoxicity assay, HepG2 (1st panel); format: cell-based, human; conditions: for IC50: Homo sapiens, HepG2, ± SD, MTT, 72 h; for selectivity index SI (HepG2): IC50 normal cell line CCD39Lu/IC50 HepG2
Protocol: as §1, §2, §3, §4, §5, §6, §7, §8

PC-3 = experiment: SRB cytotoxicity assay, PC-3 (2nd panel); format: cell-based, human; conditions: for IC50: Homo sapiens, PC-3, ± SD, SRB, 72 h, mixtures equimolar 1:1; for selectivity index SIHDF (PC-3): IC50 normal cell line HDF/IC50 PC-3
Protocol: (§9) Medium. Human Dermal Fibroblasts cell line (HDF) was cultured in Fibroblast Basal Medium.
(§10) Each medium was supplemented with 10% fetal bovine serum, 1% L-glutamine, and 1% penicillin/streptomycin solution. The cell lines were kept in the incubator at 37◦C. The optimal plating density of cell lines was determined to be 5 × 104. All the cell lines and mediums were obtained from American Type Culture Collection (ATCC) supplied by LGC-Standards. The protein-staining SRB (Sigma-Aldrich) microculture colorimetric assay, developed by the National Cancer Institute (USA) for in vitro antitumor screening was used in this study, to estimate the cell number by providing a sensitive index of total cellular protein content, being linear to cell density. The monolayer cell culture was trypsinized and the cell count was adjusted to 5 × 10^4 cells. To each well of the 96 well microtiter plate, 0.1 mL of the diluted cell suspension (approximately […]) was added. After 24 hours, when a partial monolayer was formed, the supernatant was washed out and 100 μL of six different compound concentrations (0.1, 0.2, 1, 2, 10, and 20 μM) were added to the cells in microtitre plates. The tested compounds were dissolved in DMSO (containing 10 % of water) (100 μL) and the […]
(§11) lines. The cells were exposed to compounds for 72 hours at 37 °C in a humidified atmosphere (90% RH) containing 5% CO2. After that, 25 μL of 50 % trichloroacetic acid was added to the wells and the plates were incubated for 1 hour at 4◦C. The plates were then washed out with the distilled water to remove traces of medium and next dried by the air. The air-dried plates were stained with 100 μL of 0.4% sulforhodamine B (prepared in 1 % acetic acid) and kept for 30 minutes at room temperature. The unbound dye was removed by rapidly washing with 1% […]
(§12) acetic acid and then air dried overnight. The protein-bound dye was dissolved in 100 μL of 10 mM unbuffered Tris base (pH 10.5) for optical density determination at 490 nm. All cytotoxicity experiments were performed three times. Cell survival was measured as the percentage absorbance compared to the control (nontreated cells). Cytarabine (ara-C) and GDM were used as the internal standards. Additionally biological assays were performed in Human Dermal Fibroblasts cell line (HDF) in aim to evaluate cytotoxicity of GDM and its 1-13 analogs in healthy cells. SI indexes were calculated from equation SI = IC50 normal cell line HDF/IC50 respective cancerous cell line (Table 2). A beneficial SI > 1.0 indicates a compound with efficacy against tumor cell greater than the toxicity against normal cells. […]

U-87 = experiment: SRB cytotoxicity assay, U-87 (2nd panel); format: cell-based, human; conditions: for IC50: Homo sapiens, U-87 MG, ± SD, SRB, 72 h; for selectivity index SIHDF (U-87): IC50 normal cell line HDF/IC50 U-87
Protocol: U-87MG cells (glioblastoma cell line) were cultured in Eagle’s Minimal Essential Medium. Human Dermal Fibroblasts cell line (HDF) was cultured in Fibroblast Basal Medium.
as §10, §11, §12

HDF = experiment: SRB cytotoxicity assay, human dermal fibroblasts HDF; format: cell-based; conditions: 72 h, ± SD, mixtures equimolar 1:1, read-out: IC50 HDF (toxicity in normal cells)
Protocol: as §9, §10, §11, §12

SKOV-3 = experiment: SRB cytotoxicity assay, SKOV-3 (2nd panel); format: cell-based, human; conditions: for IC50: Homo sapiens, SK-OV-3, ± SD, SRB, 72 h, mixtures equimolar 1:1; for selectivity index SIHDF (SKOV-3): IC50 normal cell line HDF/IC50 SKOV-3
Protocol: (§13) Human cancer cells SKBR-3 (human breast cancer cell line) and SKOV-3 (ovarian cancer cell line) were cultured in McCoy’s Modified Medium. […]
as §9, §10, §11, §12

physchem = conditions: water, Solubility SH2O
A-549 = experiment: SRB cytotoxicity assay, A-549 (2nd panel); format: cell-based, human; conditions: for IC50: Homo sapiens, A549, ± SD, SRB, 72 h; for selectivity index SIHDF (A-549): IC50 normal cell line HDF/IC50 A-549
Protocol: as §9, §10, §11, §12

SKBR-3 = experiment: SRB cytotoxicity assay, SKBR-3 (2nd panel); format: cell-based, human; conditions: for IC50: Homo sapiens, SK-BR-3, ± SD, SRB, 72 h, mixtures equimolar 1:1; for selectivity index SIHDF (SKBR-3): IC50 normal cell line HDF/IC50 SKBR-3
Protocol: as §13, §9, §10, §11, §12

cancer cell lines = experiment: Cytotoxicity, values summarised over several cancer cell lines; format: cell-based, human; conditions: Homo sapiens, approximate level over the three cancer cell lines; mixtures equimolar 1:1; read-out: IC50 in SKBR-3, SKOV-3 and PC-3
Protocol: Human cancer cells SKBR-3 (human breast cancer cell line) and SKOV-3 (ovarian cancer cell line) were cultured in McCoy’s Modified Medium. Human cancer cells PC-3 (human prostate cancer cell line) were cultured in F-12K medium, as well as A549 cell line (lung cancer cell line). U-87MG cells (glioblastoma cell line) were cultured in Eagle’s Minimal Essential Medium. Human Dermal Fibroblasts cell line (HDF) was cultured in Fibroblast Basal Medium.
as §10, §11
acetic acid and then air dried overnight. The protein-bound dye was dissolved in 100 μL of 10 mM unbuffered Tris base (pH 10.5) for optical density determination at 490 nm. All cytotoxicity experiments were performed three times. Cell survival was measured as the percentage absorbance compared to the control (nontreated cells). Cytarabine (ara-C) and GDM were used as the internal standards. Additionally biological assays were performed in Human Dermal Fibroblasts cell line (HDF) in aim to evaluate cytotoxicity of GDM and its 1-13 analogs in healthy cells. SI indexes were calculated from equation SI = IC50 normal cell line HDF/IC50 respective cancerous cell line (Table 2). A beneficial SI > 1.0 indicates a compound with efficacy against tumor cell greater than the toxicity against normal cells.
as §3, §4, §5

| SMILES | IC50 (HeLa) | selectivity index SI (HeLa) (HeLa) | IC50 (CCD39Lu) | IC50 (MCF-7) | selectivity index SI (MCF-7) (MCF-7) | IC50 (MDA-MB-231) | selectivity index SI (MDA-MB-231) (MDA-MB-231) | IC50 (HepG2) | selectivity index SI (HepG2) (HepG2) | IC50 (PC-3) | selectivity index SIHDF (PC-3) (PC-3) | IC50 (U-87) | selectivity index SIHDF (U-87) (U-87) | CC50 (HDF) | IC50 (SKOV-3) | selectivity index SIHDF (SKOV-3) (SKOV-3) | solubility (physchem) | IC50 (A-549) | IC50 (SKBR-3) | selectivity index SIHDF (SKBR-3) (SKBR-3) | also measured |
| --- | --- | --- | --- | --- | --- | --- | --- | --- | --- | --- | --- | --- | --- | --- | --- | --- | --- | --- | --- | --- | --- |
| CO[C@H]1/C=C\C=C(/C)C(=O)NC2=CC(=O)C(NC3CCN(S(C)(=O)=O)CC3)=C(C[C@@H](C)C[C@H](OC)[C@H](O)[C@@H](C)/C=C(\C)[C@@H]1OC(N)=O)C2=O [Compound 7] | 1.61 ± 0.61 µM | 7.83 | 12.6 ± 0.21 µM | 960 ± 510 nM | 13.13 | 2.36 ± 0.35 µM | 5.34 | 1.68 ± 0.32 µM | 7.50 | – | – | – | – | – | – | – | – | – | – | – | – |
| CO[C@H]1/C=C\C=C(/C)C(=O)NC2=CC(=O)C(NC3C[N+]4(Cc5ccc([N+](=O)[O-])o5)CCC3CC4)=C(C[C@@H](C)C[C@H](OC)[C@H](O)[C@@H](C)/C=C(\C)[C@@H]1OC(N)=O)C2=O (some centres unmarked) [Compound 11] | 8.91 ± 3.19 µM | > 1.12 | > 10 µM | 4670 ± 2000 nM | > 2.14 | 3.93 ± 1.6 µM | > 2.54 | 8.86 ± 0.17 µM | > 1.13 | 6.22 ± 0.13 µM | 1.27 | 6.06 ± 0.58 µM | 1.31 | 7.91 ± 0.91 µM | 6.04 ± 0.38 µM | 1.31 | 2300 µg/mL | 6.83 ± 0.32 µM | 6.49 ± 0.07 µM | 1.22 | selectivity index SIHDF (A-549) (A-549): 1.16 |
| CO[C@H]1/C=C\C=C(/C)C(=O)NC2=CC(=O)C(NC3C[N+]4(Cc5ccsc5Br)CCC3CC4)=C(C[C@@H](C)C[C@H](OC)[C@H](O)[C@@H](C)/C=C(\C)[C@@H]1OC(N)=O)C2=O (some centres unmarked) [Compound 12] | 9.12 ± 1.81 µM | > 1.10 | > 10 µM | 2650 ± 1090 nM | > 3.77 | 5.01 ± 2.15 µM | > 2.00 | > 10 µM | > 1 | 7.94 ± 0.03 µM | 1.75 | 8.58 ± 0.19 µM | 1.62 | 13.9 ± 0.42 µM | 8.02 ± 0.17 µM | 1.73 | 4500 µg/mL | 8.94 ± 0.27 µM | 8.49 ± 0.36 µM | 1.64 | selectivity index SIHDF (A-549) (A-549): 1.56 |
| COc1cccc2c1C(=O)c1c(O)c3c(c(O)c1C2=O)C[C@@](O)(C(=O)CO)C[C@@H]3O[C@H]1C[C@H](N)[C@H](O)[C@H](C)O1 [DOX, doxorubicin, reference compound] | – | – | – | – | – | – | – | – | – | 0.68 ± 0.01 µM | 2.24 | – | – | 1.52 ± 0.03 µM | 0.74 ± 0.06 µM | 2.05 | – | – | 0.72 ± 0.04 µM | 2.11 | IC50 (cancer cell lines): ~700 nM |
